Here are results for 15 compounds from ChEMBL document CHEMBL1123782, “6-Alkoxy-N,N-disubstituted-2-pyridinamines as anticonvulsant agents” (1987).

Format in all cases: functional
Experiment [1] has as its system Mus musculus. The experiment can be described thus: Anticonvulsant activity expressed as minimum ataxic dose (MAD) at which mice fell off inverted screen at 30 min post administration.
Experiment [2] concerns Mus musculus. The experiment can be described thus: Anticonvulsant activity expressed as minimum effective dose (MED) against tonic extension produced by maximal electroshock (MES) at 30 min post administration in mice. As to conditions: 0.5 h, read-out: MED. A general note: Protection in the maximal electroshock model is a classic sign of anticonvulsant action.
The test system of experiment [3] is Mus musculus. Description: Anticonvulsant activity was determined in mouse (administered intraperitoneally) for 0.5 hours using maximal electroshock test. As to conditions: ip.
Experiment [4] concerns Mus musculus. The experiment can be described thus: Anticonvulsant activity was determined in mouse (administered perorally) tested for 1 hour using maximal electroshock test. As to conditions: po.
Experiment [5] relates to Mus musculus. Description: Anticonvulsant activity was determined in mouse (administered intraperitoneally) tested for 0.5 hours using inverted wire mesh ataxia test. The settings on record: ip.
In experiment [6] the test system is Mus musculus. Description: Anticonvulsant activity was determined in mouse (administered perorally) tested for 0.5 hours using inverted wire mesh ataxia test. The settings on record: po.
Experiment [7] deals with Mus musculus. Description: Anticonvulsant activity was determined in mouse (administered intraperitoneally) tested for 0.5 hours using maximal electroshock test. As to conditions: ip.
The test system of experiment [8] is Mus musculus. The experiment can be described thus: Anticonvulsant activity was determined in mouse (administered intraperitoneally) for 0.5 hours using rotarod ataxia test (ADD program). The settings on record: ip. A general note: Falling from the rotarod earlier than controls is read as motor impairment.
For experiment [9], the system named is Mus musculus. Description: Anticonvulsant activity was determined in mouse (administered intraperitoneally) for 0.5 hours using inverted wire mesh ataxia test. The settings on record: ip.
Experiment [10] concerns Mus musculus. The experiment can be described thus: Anticonvulsant activity was determined in mouse (administered perorally) tested for 0.5 hours using maximal electroshock test (ADD program). As to conditions: po.
For experiment [11], the system named is Mus musculus. The experiment can be described thus: Anticonvulsant activity was determined in mouse (administered intraperitoneally) for 0.5 hours using maximal electroshock test (ADD program). The settings on record: ip.
Experiment [12] concerns Mus musculus. The experiment can be described thus: Anticonvulsant activity was determined in mouse (administered intraperitoneally) tested for 0.5 hours using rotarod ataxia test (ADD program). The settings on record: ip.
The test system of experiment [13] is Rattus norvegicus. Description: Anticonvulsant activity was determined in rat (administered perorally) tested for 0.5 hours using maximal electroshock test. The settings on record: po.
Experiment [14] concerns Mus musculus. The experiment can be described thus: Anticonvulsant activity was determined in mouse (administered perorally) tested for 1 hour using rotarod ataxia test (ADD program). The settings on record: po.
Experiment [15] concerns Mus musculus. The experiment can be described thus: Anticonvulsant activity was determined in mouse (administered perorally) for 0.5 hours using maximal electroshock test (ADD) program. The settings on record: po.
Experiment [16] deals with Rattus norvegicus. The experiment can be described thus: Anticonvulsant activity was determined in rat (administered perorally) tested for 4 hours using ataxia test. The settings on record: po.
Experiment [17] concerns Mus musculus. Description: Anticonvulsant activity was determined in mouse (administered intraperitoneally) tested for 0.5 hours using maximal electroshock test (ADD program). The settings on record: ip.
Experiment [18] concerns Mus musculus. The experiment can be described thus: Anticonvulsant activity was determined in mouse (administered intraperitoneally) tested for 2.0 hours using inverted wire mesh ataxia test. The settings on record: ip.
The subject of experiment [19] is Mus musculus. Description: Anticonvulsant activity was determined in mouse (administered intraperitoneally) tested for 2.0 hours using rotarod ataxia test (ADD program). As to conditions: ip.
Experiment [20] has as its system Mus musculus. The experiment can be described thus: Anticonvulsant activity was determined in mouse (administered perorally) tested for 2.0 hours using rotarod ataxia test (ADD program). As to conditions: po.
Experiment [21] deals with Mus musculus. The experiment can be described thus: Anticonvulsant activity was determined in mouse (administered intraperitoneally) tested for 2.0 hours using electroshock test. The settings on record: ip.
Experiment [22] has as its system Mus musculus. The experiment can be described thus: Anticonvulsant activity was determined in mouse (administered intraperitoneally) tested for 2.0 hours using maximal electroshock test (ADD program). The settings on record: ip.
For experiment [23], the system named is Mus musculus. Description: Anticonvulsant activity was determined in mouse (administered perorally) tested for 2.0 hours using maximal electric shock test (ADD program). As to conditions: po.
The test system of experiment [24] is Mus musculus. Description: Anticonvulsant activity was determined in mouse administered perorally tested for 2.0 hours using maximal electric shock test. As to conditions: po.
The test system of experiment [25] is Mus musculus. Description: Anticonvulsant activity was determined in mouse (administered intraperitoneally) tested for 2.0 hours using maximal electric shock test (ADD program). The settings on record: ip.
Experiment [26] relates to Mus musculus. Description: Anticonvulsant activity was determined in mouse (administered intraperitoneally) tested for 2.0 hours using maximal electroshock test. The settings on record: ip.
Experiment [27] has as its system Mus musculus. The experiment can be described thus: Anticonvulsant activity was determined in mouse (administered perorally) tested for 2.0 hours using inverted wire mesh ataxia test. As to conditions: po.
The subject of experiment [28] is Mus musculus. The experiment can be described thus: Anticonvulsant activity was determined in mouse (administered perorally) tested for 2.0 hours using maximal electroshock test. The settings on record: po.

`CC(C)COc1cccc(N2CCCNCC2)n1` returned an MAD in the experiment with Mus musculus [1] of 100 mg/kg. Also, the minimal effective dose in the experiment with Mus musculus [2] is 30 mg/kg.

As to `c1cc(OCC2CCCCC2)nc(N2CCNCC2)c1`, in the experiment with Mus musculus [1], the MAD was 30 mg/kg. For the same compound, in the experiment on Mus musculus [2], the minimal effective dose stood at 30 mg/kg.

In turn, `CC(C)COc1cccc(N2CCN(C)CC2)n1` had an MAD in the experiment on Mus musculus [1] of 30 mg/kg. Also, in the experiment with Mus musculus [2], the minimal effective dose was 30 mg/kg.

With `CC(C)COc1cccc(N2CCCCC2)n1`, the MAD in the experiment with Mus musculus [1] was above 300 mg/kg. For the same compound, in the experiment with Mus musculus [2], the minimal effective dose was above 300 mg/kg.

As for `Oc1cccc(N2CCNCC2)n1`, the MAD in the experiment with Mus musculus [1] was above 300 mg/kg. Besides, the minimal effective dose with Mus musculus [2] is above 300 mg/kg.

Take `CC(C)Oc1cccc(N2CCNCC2)n1`: in the experiment with Mus musculus [1], the MAD is below 10 mg/kg. For the same compound, the minimal effective dose with Mus musculus [2] worked out at 30 mg/kg.

For the compound `c1cc(OCC2CC2)nc(N2CCNCC2)c1`, the MAD in the experiment on Mus musculus [1] came to 10 mg/kg. In addition, the minimal effective dose in the experiment on Mus musculus [2] worked out at 10 mg/kg.

On to `CN(C)CCOc1cccc(N2CCNCC2)n1`, for which the MAD with Mus musculus [1] is above 300 mg/kg. The minimal effective dose in the experiment on Mus musculus [2] was above 300 mg/kg.

In the experiment on Mus musculus [1], `CC(C)COc1cccc(NCCN(C)C)n1` came in with an MAD of 300 mg/kg. For the same compound, the minimal effective dose with Mus musculus [2] turned out to be 100 mg/kg.

`COc1cccc(N2CCNCC2)n1`: the MAD with Mus musculus [1] was found to be 10 mg/kg. The minimal effective dose in the experiment on Mus musculus [2] was 30 mg/kg.

`c1cc(OC2CCCCC2)nc(N2CCNCC2)c1` showed an MAD in the experiment with Mus musculus [1] of 10 mg/kg. In addition, the minimal effective dose with Mus musculus [2] worked out at 30 mg/kg.

By ED50 is commonly meant the midpoint of the dose-response relation. Regarding `CC(C)COc1cccc(N2CCNCC2)n1`, the MAD with Mus musculus [1] was 30 mg/kg. In addition, the ED50 came out at 7.5 mg/kg in the experiment on Mus musculus [3]; 11.1 mg/kg in the experiment on Mus musculus [4]; 35 mg/kg in the experiment on Mus musculus [6]; 46 mg/kg with Mus musculus [8]; 16 mg/kg with Mus musculus [9]; 7.5 mg/kg with Mus musculus [11]. The ED50 with Rattus norvegicus [13] was found to be 36 mg/kg; in the experiment on Mus musculus [14] it was 139 mg/kg; with Mus musculus [15] it was 19 mg/kg; with Rattus norvegicus [16], 525 mg/kg. For the same compound, the ED10 with Mus musculus [4] worked out at 7.6 mg/kg; in the experiment with Mus musculus [5] it was 6.6 mg/kg; with Mus musculus [6], 11 mg/kg; in the experiment on Mus musculus [7], 5.4 mg/kg; in the experiment with Mus musculus [10], 10.7 mg/kg; in the experiment on Mus musculus [12], 30 mg/kg. The ED10 was 6.6 mg/kg in the experiment with Rattus norvegicus [13], 115 mg/kg in the experiment on Mus musculus [14], 340 mg/kg in the experiment on Rattus norvegicus [16] and 5 mg/kg in the experiment with Mus musculus [17]. In addition, the ED90 with Mus musculus [4] worked out at 17 mg/kg; in the experiment with Mus musculus [5], 39 mg/kg; with Mus musculus [6] it was 114 mg/kg; in the experiment with Mus musculus [7], 10.7 mg/kg; with Mus musculus [10], 35 mg/kg; in the experiment with Mus musculus [12] it was 69 mg/kg. Also, the ED90 with Rattus norvegicus [13] was determined as 195 mg/kg; with Mus musculus [14], 164 mg/kg; with Rattus norvegicus [16], 830 mg/kg; in the experiment with Mus musculus [17], 11.2 mg/kg. The minimal effective dose in the experiment with Mus musculus [2] amounted to 10 mg/kg.

As for `CCOc1cccc(N2CCNCC2)n1`, in the experiment on Mus musculus [1], the MAD was found to be 10 mg/kg. Also, the minimal effective dose in the experiment with Mus musculus [2] amounted to 30 mg/kg.

Take `CC(C)COc1cccc(N2CCOCC2)n1`: the MAD in the experiment on Mus musculus [1] is 300 mg/kg. Moreover, the minimal effective dose in the experiment on Mus musculus [2] was determined as 300 mg/kg.

As to `O=C1NC(=O)C(c2ccccc2)(c2ccccc2)N1` [PHENYTOIN], the ED10 was determined as 33 mg/kg in the experiment with Mus musculus [18]; 60 mg/kg in the experiment on Mus musculus [19]; 8.4 mg/kg in the experiment with Mus musculus [22]; 3.7 mg/kg in the experiment on Mus musculus [26]; 50 mg/kg in the experiment with Mus musculus [27]; 4.9 mg/kg in the experiment on Mus musculus [28]. Besides, the ED50 with Mus musculus [18] stood at 45 mg/kg; with Mus musculus [19] it was 71 mg/kg; in the experiment with Mus musculus [20] it was 95 mg/kg; in the experiment on Mus musculus [21] it was 7.4 mg/kg; with Mus musculus [22], 10.4 mg/kg; with Mus musculus [23], 9.8 mg/kg. Besides, the ED50 was 8.3 mg/kg in the experiment with Mus musculus [24], 33 mg/kg in the experiment on Rattus norvegicus [13], 78 mg/kg in the experiment on Mus musculus [27] and above 3000 mg/kg in the experiment with Rattus norvegicus [16]. Moreover, the ED90 in the experiment with Mus musculus [18] was determined as 63 mg/kg; in the experiment on Mus musculus [19], 86 mg/kg; with Mus musculus [25], 13 mg/kg; in the experiment on Mus musculus [26] it was 15 mg/kg; with Mus musculus [27], 125 mg/kg; in the experiment on Mus musculus [28] it was 14 mg/kg.
